Laboratory results taken from patent US20240217968A1, “PHARMACEUTICAL COMPOUND” (DUKE STREET BIO LIMITED, priority 2021, published 2024).

target: T1, recombinant human Flag-tagged PARP7 (amino acids 456-657) (Homo sapiens, UniProt Q7Z3E1); experiment: PARP7 biochemical DELFIA assay (auto-MARylation); settings: DELFIA readout, IC50 class
T1 construct: recombinant human Flag-tagged PARP7 (amino acids 456-657)
T1 sequence (Q7Z3E1 456-657): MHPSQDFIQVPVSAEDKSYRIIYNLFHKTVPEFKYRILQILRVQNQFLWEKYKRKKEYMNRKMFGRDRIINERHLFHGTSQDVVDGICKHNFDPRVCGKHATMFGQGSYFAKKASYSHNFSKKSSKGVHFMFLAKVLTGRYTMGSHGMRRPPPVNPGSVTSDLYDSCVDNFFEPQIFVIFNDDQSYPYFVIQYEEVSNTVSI
Outline: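 Readout is DELFIA time-resolved Eu fluorescence (Ex337 nm, Em620 nm) of biotin-ADP-ribose on immobilised Flag-tagged PARP7 456-657. Enzyme (12.5-37.5 nM as added) sat 30 min with compound before biotin-NAD+ (15 μM solution, pH 7.5 HEPES buffer) started 2-3 h room-temperature self-modification, stopped with excess NAD+.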

IC50, 100 to 1000 nM:
CC(COCCC(=O)N1CCN(c2nnc(C(F)(F)F)[nH]2)CC1)n1nc(C(F)(F)F)c2c(=O)[nH]ncc21 (stereo not drawn) [Compound 392]
CC(COCCC(=O)N1CCN(c2ncc(C(F)(F)F)cn2)CC1)c1ccc(Cl)c2c(=O)[nH]ncc12 (stereo not drawn) [Compound 399]
CC(C)(COCCC(=O)N1CCN(c2ncc(C(F)(F)F)cn2)CC1)c1cccc2c(=O)[nH]ncc12 [Compound 425]

IC50, 1000 to 10000 nM:
O=C(CCOCC(c1cccc2c(=O)[nH]ncc12)C(F)(F)F)N1CCN(c2ncc(C(F)(F)F)cn2)CC1 (stereo not drawn) [Compound 426]
O=C(CCOCCn1nc(C(F)(F)F)c2c(=O)[nH]ncc21)N1CCN(C2CN(CC(F)(F)F)C2)CC1 [Compound 433]
O=C(Cn1nc(C(F)(F)F)c2c(=O)[nH]ncc21)N1CCC(C(=O)N2CCN(c3ncc(C(F)(F)F)cn3)CC2)C1 (stereo not drawn) [Compound 442]
O=C(Cn1nc(C(F)(F)F)c2c(=O)[nH]ncc21)N1CCC(C(=O)N2CCN(c3ncc(C(F)(F)F)cn3)CC2)C1 (stereo not drawn) [Compound 443]

IC50, ≤ 100 nM:
O=C(CCOCCn1nc(C(F)(F)F)c2c(=O)[nH]ncc21)N1CCN(c2nnc(C(F)(F)F)[nH]2)CC1 [Compound 391]
O=C(CCOCCn1nc(C(F)(F)F)c2c(=O)[nH]ncc21)N1CCN(c2ncc3c(n2)NCCC3)CC1 [Compound 394]
CC(COCCC(=O)N1CCN(c2ncc(C(F)(F)F)cn2)CC1)n1c(=O)n(C)c2c(=O)[nH]ncc21 (stereo not drawn) [Compound 397]
CC(COCCC(=O)N1CCN(c2ncc(C(F)(F)F)cn2)CC1)n1c(=O)n(C)c2c(=O)[nH]ncc21 (stereo not drawn) [Compound 398]
CC(COCCC(=O)N1CCN(c2ncc(C(F)(F)F)cn2)CC1)c1ccc(Cl)c2c(=O)[nH]ncc12 (stereo not drawn) [Compound 400]
O=C(CCOCCn1nc(C(F)(F)F)c2c(=O)[nH]c(=O)[nH]c21)N1CCN(c2ncc(C(F)(F)F)cn2)CC1 [Compound 401]
Cc1nn(CCOCCC(=O)N2CCN(c3ncc(C(F)(F)F)cn3)CC2)c2[nH]c(=O)[nH]c(=O)c12 [Compound 402]
O=C(CCOCCn1cc(C(F)(F)F)c2c(=O)[nH]c(=O)[nH]c21)N1CCN(c2ncc(C(F)(F)F)cn2)CC1 [Compound 403]
Cc1cn(CCOCCC(=O)N2CCN(c3ncc(C(F)(F)F)cn3)CC2)c2[nH]c(=O)[nH]c(=O)c12 [Compound 404]
O=C(c1cccc(Cn2nc(C(F)(F)F)c3c(=O)[nH]ncc32)c1)N1CCN(c2ncc(C(F)(F)F)cn2)CC1 [Compound 407]
[2H]C([2H])(Cn1nc(C(F)(F)F)c2c(=O)[nH]ncc21)OCCC(=O)N1CCN(c2ncc(C#N)cn2)CC1 [Compound 408]
[2H]C([2H])(Cn1nc(C(F)(F)F)c2c(=O)[nH]ncc21)OCCC(=O)N1CCN(c2ncc(C(F)(F)F)cn2)CC1 [Compound 409]
O=C(CCOCCc1c(Cl)ccc2c(=O)[nH]ncc12)N1CCN(c2ncc(C(F)(F)F)cn2)CC1 [Compound 410]
CC(COCCn1cc(C(F)(F)F)c2c(=O)[nH]ncc21)C(=O)N1CCN(c2ncc(C(F)(F)F)cn2)CC1 (stereo not drawn) [Compound 412]
O=C(CCOCCn1c(=O)ccc2c(=O)[nH]ncc21)N1CCN(c2ncc(C(F)(F)F)cn2)CC1 [Compound 413]
CC(COCCC(=O)N1CCN(c2ncc(C#N)cn2)CC1)c1ccc(Cl)c2c(=O)[nH]ncc12 (stereo not drawn) [Compound 415]
CC(COCCC(=O)N1CCN(c2ccc(C#N)cn2)CC1)c1ccc(Cl)c2c(=O)[nH]ncc12 (stereo not drawn) [Compound 417]
[2H]C([2H])(OCCC(=O)N1CCN(c2ncc(C(F)(F)F)cn2)CC1)C(C)n1nc(C(F)(F)F)c2c(=O)[nH]ncc21 (stereo not drawn) [Compound 422]
O=C(CCOCC(F)(F)c1cccc2c(=O)[nH]ncc12)N1CCN(c2ncc(C(F)(F)F)cn2)CC1 [Compound 424]
N#Cc1nn(CCOCCC(=O)N2CCN(c3ncc(C(F)(F)F)cn3)CC2)c2cn[nH]c(=O)c12 [Compound 428]
O=C(CCOCCn1nc(C(F)(F)F)c2c(=O)[nH]ncc21)N1CCN(c2nnc(C(F)(F)F)o2)CC1 [Compound 434]
CC(COCCC(=O)N1CCN(c2ncc(C(F)(F)F)cn2)CC1)n1nc(C(F)F)c2c(=O)[nH]ncc21 (stereo not drawn) [Compound 435]
CC(COCCC(=O)N1CCN(c2ccc(C#N)cn2)CC1)n1nc(C(F)F)c2c(=O)[nH]ncc21 (stereo not drawn) [Compound 438]
CC(COCCC(=O)N1CCN(c2ncc(C#N)cn2)CC1)n1cc(C(F)F)c2c(=O)[nH]ncc21 (stereo not drawn) [Compound 440]
O=C(OCCCCn1nc(C(F)(F)F)c2c(=O)[nH]ncc21)N1CCN(c2ncc(C(F)(F)F)cn2)CC1 [Compound 441]
N#Cc1ccc(N2CCN(C(=O)CCOCC(F)(F)c3cccc4c(=O)[nH]ncc34)CC2)nc1 [Compound 446]
O=c1[nH]ncc2c1c(C(F)(F)F)nn2CCOCCS(=O)(=O)N1CCN(c2ncc(C(F)(F)F)cn2)CC1 [Compound 447]
CC(COCCC(=O)N1CCN(c2ccc(C#N)cn2)CC1)n1cc(C(F)F)c2c(=O)[nH]ncc21 (stereo not drawn) [Compound 449]
CC(COCCC(=O)N1CCN(c2ncc(Cl)cn2)CC1)n1cc(C(F)F)c2c(=O)[nH]ncc21 (stereo not drawn) [Compound 450]
CC(COCCC(=O)N1CCN(c2ncc(Cl)cn2)CC1)n1cc(C(F)F)c2c(=O)[nH]ncc21 (stereo not drawn) [Compound 451]
CC(CCOCC(=O)N1CCN(c2ncc(Cl)cn2)CC1)n1nc(C(F)(F)F)c2c(=O)[nH]ncc21 (stereo not drawn) [Compound 452]
CC(CCOCC(=O)N1CCN(c2ncc(Cl)cn2)CC1)n1nc(C(F)(F)F)c2c(=O)[nH]ncc21 (stereo not drawn) [Compound 453]
CC(CCOCC(=O)N1CCN(c2ncc(C(F)(F)F)cn2)CC1)n1cc(C(F)(F)F)c2c(=O)[nH]ncc21 (stereo not drawn) [Compound 454]
CC(COCC(=O)NC1CCN(c2ncc(C(F)(F)F)cn2)CC1)n1cc(C(F)(F)F)c2c(=O)[nH]ncc21 (stereo not drawn) [Compound 458]
CC(COCC(=O)N(C)C1CCN(c2ncc(C(F)(F)F)cn2)CC1)n1cc(C(F)(F)F)c2c(=O)[nH]ncc21 (stereo not drawn) [Compound 463]
CC(COCCC(=O)N1CCN(c2ncc(C#N)cn2)CC1)n1cc(C(F)(F)F)c2c(=O)[nH]ncc21 (stereo not drawn) [Compound 465]
Cc1cc(=O)n(CCOCCC(=O)N2CCN(c3ncc(C(F)(F)F)cn3)CC2)c2cn[nH]c(=O)c12 [Compound 470, 4-methyl-1-(2-(3-oxo-3-(4-(5-(trifluoromethyl)pyrimidin-2-yl)piperazin-1-yl)propoxy)ethyl)pyrido[2,3-d]pyridazine-2,5(1H,6H)-dione]
O=C(CCOCCn1nc(C(F)(F)F)c2c(=O)[nH]ncc21)N1CCN(c2cc(C(F)(F)F)[nH]n2)CC1 [Compound 471]
Cc1c(C(F)(F)F)c2c(=O)[nH]ncc2n1C(C)COCCC(=O)N1CCN(c2ncc(C(F)(F)F)cn2)CC1 (stereo not drawn) [Compound 474]
Cc1c(C(F)(F)F)c2c(=O)[nH]ncc2n1C(C)COCCC(=O)N1CCN(c2ncc(C(F)(F)F)cn2)CC1 (stereo not drawn) [Compound 475]
O=C(c1cccc(Cn2cc(C(F)(F)F)c3c(=O)[nH]ncc32)c1)N1CCN(c2ncc(C(F)(F)F)cn2)CC1 [Compound 478]
